Measured values taken from PubChem BioAssay AID1996.
Converted amounts (≈) assume the structure as drawn.

Conditions: buffer; pH 7.4; 200.0 µM

SMILES | solubility kinetic
CC(=O)N/C(=C\c1ccccc1)C(=O)Nc1ccc(O)cc1 | > 44.4 µg/mL
CCC(CC)C(=O)Nc1cccc(C(=O)NC(C)(C)C)c1 | > 43.6 µg/mL
CCC(=O)N1CCCc2ccccc21 | 22.4 µg/mL (≈ 118 µM)
CCc1ccc(CNc2ccc3c(c2)ncn3CC)cc1 | 37.3 µg/mL (≈ 134 µM)
CC(=O)Nc1scc(C)c1-c1nc2ccccc2s1 | < 0.3 µg/mL
CC(=O)c1cccc(NC(=O)CCNC(=O)c2cccc(C)c2)c1 | 20.5 µg/mL (≈ 63.2 µM)
CC(C)CCN(C(=S)Nc1cccc(F)c1)C(C)c1cccs1 (centres undefined) | 3.2 µg/mL (≈ 9.13 µM)
O=C(O)c1ccc(Nc2cccc(F)c2)c([N+](=O)[O-])c1 | > 41.4 µg/mL
CCOC(=O)CSc1nc(C(C)(C)C)nc2ccccc12 | 0.7 µg/mL (≈ 2.3 µM)
CC1CCN(C(=O)C2COc3ccccc3O2)CC1 (centres undefined) | > 39.2 µg/mL
CC(=O)Nc1ccccc1NC(=O)c1ccc(C)c(C)c1 | > 42.4 µg/mL
N#C/C(C(N)=O)=C1/CCCN1Cc1ccccc1 | > 36.2 µg/mL
O=C(Nc1ccc(F)cc1)C(Cc1ccccc1)n1cccc1 (centres undefined) | 31.4 µg/mL (≈ 102 µM)
COc1ccc(/C=C/C(=O)Nc2c(C(=O)O)[nH]c3ccccc23)cc1OC | > 55 µg/mL
COc1ccccc1NC(=O)c1sc(Cl)nc1C | 36.8 µg/mL (≈ 130 µM)
Cc1cc(C)cc(NC(=S)N2CCCC2)c1 | > 35.2 µg/mL
CCOc1ccccc1N(C)C(=O)c1cn(C)c(=O)c2ccccc12 | 48.1 µg/mL (≈ 143 µM)
Cn1cccc1C(=O)N1CCc2ccccc2C1 | > 36 µg/mL
CCN(CC)c1ncc(C#N)c(N)n1 | 25.6 µg/mL (≈ 134 µM)
CN(C)c1ccc(CCc2ccc(N)cc2)cc1 | 21 µg/mL (≈ 87.4 µM)
O=C(NC1CCSc2ccccc21)c1cccc([N+](=O)[O-])c1 (centres undefined) | 2.4 µg/mL (≈ 7.63 µM)
COc1ccccc1NCCC(=O)OCC(=O)Nc1ccccc1F | > 52 µg/mL
Cc1ccc(N2C(=O)C3C4C=CC(CC4)C3C2=O)cc1[N+](=O)[O-] (centres undefined) | 23.4 µg/mL (≈ 74.9 µM)
CCOC(=O)C1(C)NC(c2ccco2)C2C(=O)N(CC)C(=O)C21 (centres undefined) | > 48.1 µg/mL

SMILES | solubility kinetic
O=C(O)COCC(=O)Nc1ccc2c(c1)ncn2CCc1ccccc1 | > 53 µg/mL
CC1(C)OC(C)(C)/C(=C\c2ccccc2[N+](=O)[O-])C1=O | 27.7 µg/mL (≈ 101 µM)
Cc1ccc2nc(-c3cccnc3)c(Nc3ccccc3C)n2c1 | 2.2 µg/mL (≈ 7 µM)
COc1ccc(CCNC(=O)CN(C)S(=O)(=O)c2ccc(OC)cc2)cc1 | > 58.9 µg/mL
O=C(COc1ncnc2ccccc12)Nc1ccccc1[N+](=O)[O-] | 14.6 µg/mL (≈ 45 µM)
CCCc1c(C)nc(N2CCN(c3ccccc3OC)CC2)[nH]c1=O | 2.5 µg/mL (≈ 7.3 µM)
c1ccc(-c2nc(N3CCOCC3)sc2-c2ccccc2)cc1 | < 0.3 µg/mL
COc1ccc(S(=O)(=O)N(C)CC(=O)N2CCCC2)cc1 | > 46.9 µg/mL
CCOc1ccc(C(c2c(O)nc(SC)[nH]c2=O)c2c(O)nc(SC)[nH]c2=O)cc1 | > 67.3 µg/mL
CC(=O)N1CCN(Cc2nc3cc(Cl)ccc3c(=O)[nH]2)CC1 | > 48.1 µg/mL
Oc1ccc(-c2nc3ccccc3s2)cc1 | 6.6 µg/mL (≈ 29 µM)
Cc1onc(-c2ccccc2)c1C(=O)NC(C)c1ccccc1 (centres undefined) | 4.9 µg/mL (≈ 16 µM)
Cc1cccc(NC(=O)[C@@H]2CCCN2S(=O)(=O)c2ccc(Cl)cc2)c1 | 37.9 µg/mL (≈ 100 µM)
O=C(CN1C(=O)NC2(CCCC2)C1=O)NCCc1ccccc1 | 44.8 µg/mL (≈ 142 µM)
O=C1c2cccc3cc([N+](=O)[O-])cc(c23)C(=O)N1CC1CCCO1 (centres undefined) | 5.7 µg/mL (≈ 17.5 µM)
CC(Oc1ccc(F)cc1)C(=O)N1CCN(c2ncccn2)CC1 (centres undefined) | > 49.6 µg/mL
COc1ccccc1CN(C)CC(=O)Nc1cccc(S(=O)(=O)N2CCCC2)c1.O=C(O)C(=O)O | 57.3 µg/mL
COCCn1cnc2c1c(=O)n(CC(=O)NCC(F)(F)F)c(=O)n2Cc1ccccc1 | 39.9 µg/mL (≈ 90.8 µM)
O=C(COc1ccc(Br)cc1F)NCC1(N2CCCCC2)CCCCC1 | > 64.1 µg/mL
CC1CCN(C(=S)NC(=O)c2cccs2)CC1 | > 40.3 µg/mL
CCC(=O)c1ccc(OCC(=O)NCCc2ccccn2)cc1 | > 46.9 µg/mL
CC(C)(C)OC(=O)N1Cc2[nH]c3ccccc3c2C[C@@H]1C(=O)O | > 47.5 µg/mL
CCCc1c(C)nc(N2CCN(c3cccc(OC)c3)CC2)[nH]c1=O | 4 µg/mL (≈ 11.7 µM)
O=C(Nc1ccccc1)OCCCCCOC(=O)Nc1ccccc1 | < 0.4 µg/mL

SMILES | solubility kinetic
COc1ccccc1OCCNC(=O)C(=O)c1c[nH]c2ccccc12 | 37.2 µg/mL (≈ 110 µM)
CCC(C)[C@H](NC(=O)Nc1ccccc1F)C(=O)OC (some centres undefined) | > 42.3 µg/mL
O=C(CCOc1ccccc1)N1CCN(c2ccc(O)cc2)CC1 | > 49 µg/mL
FC(F)(F)c1cccc(CN2CCSCC2)c1 | < 0.6 µg/mL
CC(C)CCNS(=O)(=O)c1cc2c3c(c1)CCN3C(=O)CC2 | 46 µg/mL (≈ 143 µM)
CCOC(=O)c1cc(-c2csc(Nc3c(C)cc(C)cc3C)n2)on1 | 0.4 µg/mL (≈ 1.12 µM)
CC(CN1CCCCC1)OC(=O)/C=C/c1ccccc1.Cl (centres undefined) | > 46.5 µg/mL
O=C(O)C1CCCN1S(=O)(=O)c1ccc(Br)cc1 (centres undefined) | > 50.1 µg/mL
Cc1cc(C)cc(N=Cc2c(O)c3ccccc3oc2=O)c1 | < 0.6 µg/mL
O=C(c1ccc(Cl)cc1)N1CCC2(CC1)OCCO2 | 39.6 µg/mL (≈ 141 µM)
CC(C)N(Cc1ccccc1)C(=S)NCc1ccccc1 | 19.4 µg/mL (≈ 65 µM)
Cc1ccc(NC(=O)CS(=O)c2ccccc2N)c(C)c1 (centres undefined) | > 45.4 µg/mL
COc1ccc(CNC(=O)C(=O)NCc2cccnc2)cc1 | 20.9 µg/mL (≈ 69.8 µM)
O=C(NCc1ccco1)/C(=C\C=C\c1ccccc1)NC(=O)c1ccco1 | > 54.4 µg/mL
CS(=O)(=NS(=O)(=O)c1ccc(Cl)cc1)c1ccccc1 (centres undefined) | > 49.5 µg/mL
COCCNC(=O)NC(=O)CSc1nc(C)c(C)c(C)n1 | > 46.9 µg/mL
O=C(NCc1ccccc1)c1ccc(F)c(F)c1 | 35.5 µg/mL (≈ 144 µM)
O=C(Nc1c(Cl)ccc2nsnc12)c1ccc([N+](=O)[O-])o1 | > 48.7 µg/mL
Cc1nnc(NC(=O)c2ccc3nccnc3c2)s1 | > 40.7 µg/mL
CC(=O)c1ccc(-n2cc(C#N)c(=O)[nH]c2=O)cc1 | 34.7 µg/mL (≈ 136 µM)
O=C(/C=C1\SC(=O)NC1=O)Nc1ccc(C(=O)O)cc1 | > 43.8 µg/mL
COc1ccc(CNC(=O)C2CCN(C(=O)c3ccccc3)CC2)cc1 | > 52.9 µg/mL
COc1cc(C(C)=O)ccc1OCC(=O)Nc1cc(C)on1 | 8.3 µg/mL (≈ 27.3 µM)
CSc1nc(-c2ccccc2)c(C#N)c(=O)[nH]1 | > 36.5 µg/mL

SMILES | solubility kinetic
CS(=O)(=O)N1CCc2nc(-c3ccccc3)sc2C1 | 10.4 µg/mL (≈ 35.3 µM)
Cc1ccc(C)c(NC(=O)CN(C)C(=O)c2sccc2C)c1 | > 47.5 µg/mL
CC(C)C[C@H](NC(=O)NCc1ccc(F)cc1)C(=O)O | > 42.3 µg/mL
O=C(CC1NCCN(Cc2ccccc2)C1=O)Nc1ccc(Cl)cc1 (centres undefined) | 46.8 µg/mL (≈ 131 µM)
O=C(Nc1nc2ccsc2c(=O)s1)C1CCC1 | 8.1 µg/mL (≈ 30.4 µM)
COc1ccc(C(=O)N2CCN=C2SC)cc1 | > 37.5 µg/mL
COCCNC(=O)c1ccccc1NC(=O)c1cccc([N+](=O)[O-])c1C | 53.5 µg/mL (≈ 150 µM)
CN1CCN(C(=O)CCC(=O)O)CC1 | 26.5 µg/mL (≈ 132 µM)
O=C(CN1CCN(Cc2ccc(F)cc2)CC1)NCc1ccccc1 | > 51.2 µg/mL
COc1cc2c(C(=O)O)c(C)n(-c3ccccc3)c2c2ccccc12 | 1.3 µg/mL (≈ 3.92 µM)
CCn1c(C)cc(O)cc1=O | > 23 µg/mL
Cc1ccccc1NC(=O)N1CCC(C(=O)c2ccc(F)cc2)CC1 | 33.4 µg/mL (≈ 98.1 µM)
CCOc1ccc(NC(=O)N[C@@H](Cc2ccccc2)C(=O)O)cc1 | > 49.3 µg/mL
Cc1ccc(C(=O)NC(=O)OCCn2c(C)cnc2[N+](=O)[O-])cc1 | 48.2 µg/mL (≈ 145 µM)
CCOc1ccc(NC(=O)COC(=O)c2cc(C)oc2C)cc1 | 4.2 µg/mL (≈ 13.2 µM)
N#Cc1ccc(C(=O)NCCCSc2ccccc2)cc1 | 6.4 µg/mL (≈ 21.6 µM)
CCOc1cc2c(cc1/C=C1/NC(=O)N(CC(=O)OC)C1=O)OCO2 | 2.9 µg/mL (≈ 8.33 µM)
O=C1C2C3C=CC(C3)C2C(=O)N1c1cccc2ccccc12 (centres undefined) | 22.9 µg/mL (≈ 79.1 µM)
O=[N+]([O-])c1cccc(N2Cc3ccccc3C2)c1 | 7.9 µg/mL (≈ 32.9 µM)
CC(NC(=O)c1ccc(Cl)cc1)C1CC2CCC1C2 (centres undefined) | 1.1 µg/mL (≈ 3.96 µM)
O=C(CCc1ccccc1)Nc1ccccc1C(=O)N1CCOCC1 | > 50.8 µg/mL
CCOC(=O)c1c(C)[nH]c(C(=O)COC(=O)c2ccco2)c1C | 3.1 µg/mL (≈ 9.71 µM)
O=C(NCc1csc(-c2cccs2)n1)Nc1cccc(Cl)c1 | 0.3 µg/mL (≈ 0.857 µM)
COc1ccccc1NC1=NC(CO)(CO)CS1 | > 40.2 µg/mL

SMILES | solubility kinetic
COc1ccc(C2(O)C(=O)Nc3ccccc32)cc1 (centres undefined) | > 38.3 µg/mL
CCOCCN(C(=O)c1ccccc1Cl)c1cccc(C)c1C | > 49.8 µg/mL
Cn1cccc1-c1nc2ccc([N+](=O)[O-])cc2[nH]1 | 15.2 µg/mL (≈ 62.7 µM)
CCC(=O)Nc1cc(C(F)(F)F)ccc1N1CCCC1 | 34 µg/mL (≈ 119 µM)
COc1ccc(OCC(=O)N2CCCC2=O)c([N+](=O)[O-])c1 | 42.8 µg/mL (≈ 145 µM)
COc1ccc(C(C)(C)C)cc1NC(=O)c1ccc[n+]([O-])c1 | > 45.1 µg/mL
O=C(CN1CCN(Cc2ccccc2)CC1)NCc1ccc(Cl)cc1 | > 53.7 µg/mL
COc1ccc(C)cc1NC(=O)CN1C(=O)C2CC=CCC2C1=O (centres undefined) | > 49.3 µg/mL
Cc1ccccc1OCC(=O)OCC(=O)Nc1ccc(Cl)cn1 | 47.2 µg/mL (≈ 141 µM)
COc1cccc(C(=O)N2CCC(C(=O)NCc3ccco3)CC2)c1 | 50.6 µg/mL (≈ 148 µM)
Cn1c(=O)cc(Nc2ccc(Cl)cc2)[nH]c1=O | 8.7 µg/mL (≈ 34.6 µM)
CC1CCN(C(=O)CN2C(=O)COc3ccc(Cl)cc32)CC1 | > 48.4 µg/mL
O=C(OCC(=O)N1CCCCC1)c1c[nH]c2ccccc12 | > 42.9 µg/mL
CCOC(=O)COc1ccc2c(c1)c(C(C)=O)c(C)n2Cc1ccccc1 | 6.9 µg/mL (≈ 18.9 µM)
Cc1csc(NC(=O)c2ccc(S(=O)(=O)N3CCN(C)CC3)cc2)n1 | 54.5 µg/mL (≈ 143 µM)
O=C(CCN1C(=O)c2cccc([N+](=O)[O-])c2C1=O)NC1CCCCCC1 | > 53.9 µg/mL
CCCS(=O)(=O)N1CCCC(C(=O)NCC(OC)OC)C1 (centres undefined) | 45.2 µg/mL (≈ 140 µM)
CCCc1cc(=O)[nH]c(SCC(=O)N2CCCC2=O)n1 | > 44.3 µg/mL
CN(Cc1c(F)cccc1Cl)C(=O)CNC(=O)c1cccs1 | > 51.1 µg/mL
S=C(NC1CCCCC1)N1CCCCC1 | 26.3 µg/mL (≈ 116 µM)
CC(C)(CO)NC(=S)NCc1ccco1 | > 34.2 µg/mL
O=C(CNC(=O)c1ccc(OC(F)F)cc1)NC1CCCc2ccccc21 (centres undefined) | 5.6 µg/mL (≈ 15 µM)
O=C1NCCCCC1NS(=O)(=O)c1cccc(C(F)(F)F)c1 (centres undefined) | > 50.4 µg/mL
